# Experimental data as given in US20170319661A1, “Methods and Pharmaceutical Compositions Using Orexins (OXA, OXB) for the Treatment of Prostate Cancers” (INSERM (Institut National de la Sante et de la Recherche …, priority 2014, published 2017).
# “Also recorded” adds a separate entry of the source.
# Columns and labels:
# Type in all cases: cell-based, human
# [1] = test system: HT-29 cells; experiment: Cell viability / growth of HT-29 cells
# Description: (§1) Two human-derived CaP cell lines were used, i.e. the androgen-responsive cell line LNCaP, and the androgen-unresponsive cell line DU145 as well as the colorectal adenocarcinoma HT-29 cell line. The three cell lines were purchased from American Type Culture Collection (ATCC, Rockville, Md.). The LNCaP cells were maintained in RPMI 1640 medium supplemented with 10% fetal bovine serum (FBS), 1% penicillin/streptomycin and 1% glutamine (complete medium). The DU145 cells were maintained in Dulbecco modified Eagle's minimal essential medium (DMEM) supplemented with 10% FBS and 1% penicillin/streptomycin (complete medium). The HT-29 cells were maintained in DMEM supplemented with 10% FBS, 1% penicillin/streptomycin and 1% glutamine. […]
# (§2) Cell viability was determined by using the CellTiter-Blue® assay (Promega, Charbonnières, France). Cell apoptosis was quantified by evaluating the enzymatic activities of Caspase 3/7 by using the Apo-ONE® Homogeneous Caspase-3/7 Assay (promega). Briefly, the enzymes were measured in intact and differentiated DU145 culture cells after a 3-days incubation with OxA or OxB (10^-6M) in 96-well plates. The cells were incubated with fluorogenic peptide specific to caspase 3 and 7 enzymes, and detection of fluorescent product over time was monitored in a spectrofluorometer Flex Station 3 (Molecular Devices, St. Grégoire, France) at 485 nm excitation and 527 nm emission. […]
# [2] = test system: DU145 cells; experiment: Apo-ONE Homogeneous Caspase-3/7 apoptosis assay in DU145 cells (native or neuroendocrine-differentiated); details: 10^-6 M, 3 days
# Description: as §1, §2
# [3] = test system: HT-29 cells; experiment: Apo-ONE Homogeneous Caspase-3/7 apoptosis assay in HT-29 cells (positive control); details: 10^-6 M
# [4] = test system: DU145 cells; experiment: CellTiter-Blue cell viability / growth of DU145 cells; details: native DU145 cells, 10^-6 M, 3 days
# Description: as §1, §2
substance,measurement,setting,value
Orexin-B [OxB],cell growth,[1],inhibited cell growth
same,apoptosis (Caspase 3/7 activity),[2]; DU145 cells submitted to neuroendocrine differentiation (db-cAMP 1 mM/IBMX 0.1 mM),promote cell death
same,apoptosis (Caspase 3/7 activity),[2]; native DU145 cells,did not alter apoptosis; also recorded: has no effect on the apoptosis rate
same,apoptosis (Caspase 3/7 activity),[3],promoted significantly the apoptosis
same,cell growth,[4],increased cell growth
